Source: US8013006B2

Tests used:
[1] = test system: HCV replicon; test: microbe, parasite or virus in culture; format: cell-based; details: Hepatitis C virus, 48 h, read-out: Replicon IC5Os μM

| Structure (SMILES) | IC50 [1] [µM] | melting point [°C] |
| --- | --- | --- |
| CCn1c(NC(C)=O)c(C#N)c2ccc([N+](=O)[O-])cc21 [Compound 25, N-(3-cyano-1-ethyl-6-nitro-1H-indol-2-yl)acetamide] | > 2 | 291 to 293 |
| COc1ccc(-n2cc(C(C)=O)c3ccc(OC)cc32)cc1 [Compound 48] | 0.5 to 2 | 138 to 142 |
| CCn1c(C#Cc2ccc(N)cc2)c(C#N)c2ccc(OC)cc21 [Compound 69] | 0.5 to 2 | 163 to 166 |
| CCn1c(-c2ccc(NC(=O)C3CC3)cc2)c(C#N)c2ccc(OC)cc21 [Compound 81] | < 0.5 | 209 to 211 |
| CCC(=O)Nc1ccc(C#Cc2c(C#N)c3ccc(OC)cc3n2CC)cc1 [Compound 82] | 0.5 to 2 | 223 to 228 |
| CCCn1c(-c2ccc(NS(=O)(=O)CC)cc2)c(C#N)c2ccc(OC)cc21 [Compound 85] | < 0.5 | 163 to 165 |
| CCS(=O)(=O)Nc1ccc(-c2c(C#N)c3ccc(OC)cc3n2C2CCC2)cc1 [Compound 86] | < 0.5 | 158 to 160 |
| CCn1c(-c2ccc(NS(=O)(=O)C(C)C)cc2)c(C#N)c2ccc(OC)cc21 [Compound 88] | 0.5 to 2 | 209 to 213 |
| CCn1c(C#Cc2ccccc2)c(C#N)c2ccc(C(N)=O)cc21 [Compound 94] | 0.5 to 2 | 262 to 265 |
| CCn1c(C#Cc2cccc(OC)c2)c(C#N)c2ccc(C(N)=O)cc21 [Compound 95] | 0.5 to 2 | 248 to 251 |
| CCn1c(C#Cc2ccc(N)cc2)c(C#N)c2ccc(C(N)=O)cc21 [Compound 96] | 0.5 to 2 | 243 to 250 |
| COc1ccc(-n2cc(C#N)c3ccc(Cl)cc32)cc1 [Compound 119] | 0.5 to 2 | 126 to 128 |
| CCn1c(C#Cc2ccc(NS(=O)(=O)CC)cc2)c(C#N)c2ccc(OC)cc21 [Compound 131] | 0.5 to 2 | 199 to 204 |
| CCn1c(C#Cc2ccc(NS(=O)(=O)C(C)C)cc2)c(C#N)c2ccc(OC)cc21 [Compound 132] | 0.5 to 2 | 209 to 212 |
| CCn1c(C#Cc2ccccc2Cl)c(C#N)c2ccc(OC)cc21 [Compound 134] | 0.5 to 2 | 155 to 157 |
| CCn1c(C#Cc2ccc(NC(=O)COC)cc2)c(C#N)c2ccc(OC)cc21 [Compound 139] | 0.5 to 2 | 191 to 195 |

| Structure (SMILES) | IC50 [1] [µM] | melting point [°C] |
| --- | --- | --- |
| CCn1c(C#Cc2cccc(C)c2)c(C#N)c2ccc(OC)cc21 [Compound 144] | 0.5 to 2 | 97 to 100 |
| CCn1c(C#Cc2ccc(C(C)(C)C)cc2)c(C#N)c2ccc(OC)cc21 [Compound 145] | 0.5 to 2 | 110 to 113 |
| CCn1c(C#Cc2ccc(NC(=O)C3CCC3)cc2)c(C#N)c2ccc(OC)cc21 [Compound 153] | 0.5 to 2 | 225 to 228 |
| CCn1c(C#Cc2ccc(CC#N)cc2)c(C#N)c2ccc(OC)cc21 [Compound 161] | 0.5 to 2 | 174 to 176 |
| CCn1c(C#Cc2ccc(O)cc2)c(C#N)c2ccc(OC)cc21 [Compound 172] | 0.5 to 2 | 221 to 223 |
| CCn1c(C#Cc2cccc(N)c2)c(C#N)c2ccc(OC)cc21 [Compound 173] | 0.5 to 2 | 150 to 153 |
| CCn1c(C#Cc2ccc3c(c2)OCCO3)c(C#N)c2ccc(OC)cc21 [Compound 175] | 0.5 to 2 | 132 to 135 |
| CCn1c(C#Cc2ccc(C(F)(F)F)cc2)c(C#N)c2ccc(O)cc21 [Compound 185] | 0.5 to 2 | 157 to 160 |
| CCn1c(C#Cc2ccccc2)c(C#N)c2ccc(O)cc21 [Compound 188] | 0.5 to 2 | 209 to 212 |
| CCn1c(C#Cc2cccc(O)c2)c(C#N)c2ccc(C(F)(F)F)cc21 [Compound 196] | 0.5 to 2 | 187 to 189 |
| CCn1c(C#Cc2ccc(N)cc2)c(C#N)c2ccc(C(F)(F)F)cc21 [Compound 200] | 0.5 to 2 | 187 to 189 |
| CCn1c(C#Cc2ccc(N(C)C)cc2)c(C#N)c2ccc(C(F)(F)F)cc21 [Compound 201] | 0.5 to 2 | 147 to 150 |
| CCn1c(C#Cc2cccc(NC(C)=O)c2)c(C#N)c2ccc(OC)cc21 [Compound 205] | 0.5 to 2 | 181 to 184 |
| CCC(=O)Nc1cccc(C#Cc2c(C#N)c3ccc(OC)cc3n2CC)c1 [Compound 206] | 0.5 to 2 | 187 to 191 |
| CCn1c(C#Cc2cccc(NC(=O)C(C)C)c2)c(C#N)c2ccc(OC)cc21 [Compound 207] | 0.5 to 2 | 179 to 183 |
| CCn1c(C#Cc2cccc(NC(=O)C3CC3)c2)c(C#N)c2ccc(OC)cc21 [Compound 211] | 0.5 to 2 | 186 to 191 |
